Experiments:
TK-10 = details: single dose 10 μM; renal carcinoma
HOP-92 = details: single dose 10 μM; non-small lung carcinoma
[1] = tested on: NCI 60 cancer cell line panel; test: NCI 60 full panel summary; details: single dose 10 μM; mean over the NCI 60 panel
K-562 = details: single dose 10 μM; leukemia
MDA-MB-468 = details: single dose 10 μM; breast carcinoma
T-47D = details: single dose 10 μM; breast carcinoma
MOLT-4 = details: single dose 10 μM; leukemia
MCF7 = details: single dose 10 μM; breast carcinoma
PC-3 = details: single dose 10 μM; prostate carcinoma
CAKI-1 = details: single dose 10 μM; renal carcinoma
SF-539 = details: single dose 10 μM; CNS cancer
MALME-3M = details: single dose 10 μM; melanoma
LOX IMVI = details: single dose 10 μM; melanoma
CCRF-CEM = details: single dose 10 μM; leukemia
UO-31 = details: single dose 10 μM; renal carcinoma
UACC-62 = details: single dose 10 μM; melanoma
NCI-H522 = details: single dose 10 μM; non-small lung carcinoma
SK-OV-3 = details: single dose 10 μM; ovarian carcinoma
SNB-19 = details: single dose 10 μM; CNS cancer
HL-60(TB) = details: single dose 10 μM; leukemia
HCT-15 = details: single dose 10 μM; colon cancer
HOP-62 = details: single dose 10 μM; non-small lung carcinoma
SR = details: single dose 10 μM; leukemia
RPMI-8226 = details: single dose 10 μM; leukemia
OVCAR-5 = details: single dose 10 μM; ovarian carcinoma
SF-295 = details: single dose 10 μM; CNS cancer
ACHN = details: single dose 10 μM; renal carcinoma
786–0 = details: single dose 10 μM; renal carcinoma
EKVX = details: single dose 10 μM; non-small lung carcinoma
NCI-H226 = details: single dose 10 μM; non-small lung carcinoma
U251 = details: single dose 10 μM; CNS cancer
SNB-75 = details: single dose 10 μM; CNS cancer
SK-MEL-5 = details: single dose 10 μM; melanoma
BT-549 = details: single dose 10 μM; breast carcinoma
HT29 = details: single dose 10 μM; colon cancer
UACC-257 = details: single dose 10 μM; melanoma
SN12C = details: single dose 10 μM; renal carcinoma

| Molecule | GI% (TK-10) | GI% (HOP-92) | Mean GI% [1] | GI% (K-562) | GI% (MDA-MB-468) | GI% (T-47D) | GI% (MOLT-4) | GI% (MCF7) | GI% (PC-3) | GI% (CAKI-1) | GI% (SF-539) | GI% (MALME-3M) | GI% (UO-31) | GI% (NCI-H522) | GI% (SK-OV-3) | GI% (SNB-19) | GI% (HL-60(TB)) | GI% (HOP-62) | GI% (SR) | GI% (RPMI-8226) | also measured |
| --- | --- | --- | --- | --- | --- | --- | --- | --- | --- | --- | --- | --- | --- | --- | --- | --- | --- | --- | --- | --- | --- |
| COc1ccc(C2=NN(C(C)=O)C(c3cn(-c4ccccc4)nc3-c3cc4ccccc4o3)C2)cc1 (stereo not shown) [4b, 1-(5-(3-(Benzofuran-2-yl)-1-phenyl-1H-pyrazol-4-yl)-3-(4-methoxyphenyl)-4,5-dihydropyrazol-1-yl)ethanone] | 7.73% | 8.59% | −2.13% | 5.81% | 2.43% | 2.42% | 7.68% | 9.85% | 6.35% | 13.20% | 2.46% | 0.92% | 17.79% | 1.65% | 4.82% | 2.45% | 0.51% | 2.33% | 12.12% | 4.36% | GI% (LOX IMVI): 2.30%; GI% (CCRF-CEM): 10.80%; GI% (UACC-62): 5.56%; GI% (HCT-15): 0.50% |
| 3-(5-(Benzofuran-2-yl)-1-phenyl-1H-pyrazol-3-yl)-1-(4-methoxyphenyl)prop-2-en-1-one [2b] | 6.22% | 18.73% | 0.61% | 8.35% | 65.44% | 83.54% | 7.84% | 0.75% | 4.83% | 12.51% | 3.20% | 1.29% | 14.83% | 0.40% | 4.75% | 6.26% | 10.93% | 2.25% | 16.61% | 10.27% | GI% (OVCAR-5): 2.97%; GI% (LOX IMVI): 4.44%; GI% (CCRF-CEM): 19.37%; GI% (SF-295): 7.09%; GI% (UACC-62): 7.77%; GI% (ACHN): 0.20%; GI% (786–0): 1.04%; GI% (EKVX): 5.88%; GI% (NCI-H226): 0.47% |
| CC(=O)N1N=C(c2ccccc2)CC1c1cn(-c2ccccc2)nc1-c1cc2ccccc2o1 (stereo not shown) [4a, 1-(5-(3-(Benzofuran-2-yl)-1-phenyl-1H-pyrazol-4-yl)-3-phenyl-4,5-dihydropyrazol-1-yl)ethanone] | 11.62% | 16.24% | 1.66% | 6.90% | 3.32% | 12.41% | 7.01% | 11.19% | 8.29% | 13.36% | 8.41% | 1.02% | 15.50% | 2.75% | 9.60% | 5.00% | 2.27% | 1.18% | 17.00% | 6.01% | GI% (U251): 1.60%; GI% (OVCAR-5): 3.55%; GI% (SNB-75): 1.45%; GI% (LOX IMVI): 4.25%; GI% (CCRF-CEM): 15.54%; GI% (SF-295): 5.69%; GI% (UACC-62): 8.33%; GI% (SK-MEL-5): 0.15%; GI% (786–0): 2.59%; GI% (BT-549): 9.06%; GI% (HCT-15): 2.61%; GI% (EKVX): 6.06%; GI% (NCI-H226): 0.69%; GI% (HT29): 0.65% |
| 1-(1H-Benzo[d]imidazol-2-yl)-3-(5-(benzofuran-2-yl)-1-phenyl-1H-pyrazol-3-yl)prop-2-en-1-one [2d] | 3.41% |  | −0.94% | 4.77% | 1.87% | 7.67% | 3.61% | 5.90% |  | 10.24% | 1.65% | 0.07% | 7.86% | 0.40% | 4.37% | 4.33% | 8.55% | 0.08% | 14.03% | 0.67% | GI% (UACC-257): 1.66%; GI% (SNB-75): 20.70%; GI% (SF-295): 4.39%; GI% (SN12C): 3.48%; GI% (786–0): 0.74%; GI% (BT-549): 15.03%; GI% (EKVX): 2.15% |

Source: article PMC12486440, “Design, synthesis, and in silico studies of new benzofuran–pyrazole hybrids as multi-kinase inhibitors with potential antiproliferative activity” (RSC Advances, 2025)
